Source: EPA's ToxValDB 9.5 (doi:10.2903/j.efsa.2006.56r)
“And” between values parts separate entries of the source, which are not always exact repeats. Identical values can stand only once.

Columns and labels:
[1] = test system: Colinus virginianus; settings: for LC50: diet
[2] = test system: Apis mellifera; settings: acute; for LD50: mortality
[3] = test system: Rattus norvegicus; settings: for LD50: acute, mortality
[4] = test system: Plant; settings: acute
[5] = test system: Oryctolagus sp.; settings: developmental; development
[6] = test system: Pontoscolex corethrurus; settings: for LC50: acute, mortality
[7] = test system: Anatidae; settings: reproductive
[8] = test system: Anas platyrhynchos; settings: acute; oral; unspecified; mortality
[9] = test system: Tagia sp.; settings: chronic/long-term
[10] = chronic, duration: 2 years, oral, diet, M, organ weight

| SMILES | LC50 ([1]; acute, oral, mortality) [mg/kg-day] | LD50 ([1]; acute, oral, mortality) [mg/kg] | LEC ([2]; dermal) [µg/piece] | LD50 ([2]; oral, unspecified) [µg/piece] | LD50 ([3]; oral) [mg/kg] | NOAEL ([3]; chronic) [mg/kg-day] | NOAEL [3, 10] [mg/kg-day] | LEC [4] [µg/L] | NOAEL [5] [mg/kg-day] | LC50 [6] [mg/kg] | NOEC ([6]; chronic/long-term) [mg/kg] | NOEC ([1]; reproduction developmental) [mg/kg-day] | LD50 ([2]; dermal) [µg/piece] | NOEC [7] [mg/kg-day] | NOAEL ([3]; reproduction developmental, reproduction) [mg/kg-day] | NOAEL ([3]; subchronic, duration: 13 weeks, oral, diet, M/F, histopathology: nonneoplastic) [mg/kg-day] | LD50 [8] [mg/kg] | LEC (acute) | LEC (chronic) | NOEC [9] [mg/kg] |
| --- | --- | --- | --- | --- | --- | --- | --- | --- | --- | --- | --- | --- | --- | --- | --- | --- | --- | --- | --- | --- |
| CCCCOCCOC(=O)COc1nc(Cl)c(Cl)cc1Cl [Triclopyr butotyl] | 1890 | 735 | > 100 | > 100 | 803 | 5 | 3 | 2200 | 30 | > 521 | 9.6 | – | – | – | – | – | – | – | – | – |
| O=C(O)COc1nc(Cl)c(Cl)cc1Cl [Triclopyr] | 1030 | – | – | > 100 | 630 | – | 3 | – | 30 | > 983 | – | 500 | > 100 | 30 | 25 | 5 | 1700 | 117 mg/L and > 131 mg/L and 75.8 mg/L | 46.3 mg/L and 48.5 mg/L | 9.6 |
